Values after ≈ are worked out from the molar mass of the structure shown.
Experiments:
[1] = test system: Burkholderia pseudomallei; assay: microbe, parasite or virus in culture; assay type: cell-based; conditions: for MIC Bp: 24 h at 37 °C, cation-adjusted Mueller–Hinton II broth, mean of two replicates; for MIC: Burkholderia pseudomallei, 24 h, read-out: MIC Bp
[2] = test system: Staphylococcus aureus Newman; assay: microbe, parasite or virus in culture; assay type: cell-based; conditions: for MIC: Staphylococcus aureus, NEWMAN, 24 h, read-out: MIC Sa
Pseudomonas aeruginosa = assay: microbe, parasite or virus in culture; assay type: cell-based; conditions: for MIC: Pseudomonas aeruginosa, 24 h, read-out: MIC Pa
[3] = Transepithelial transport assay (Papp), HBEC air–liquid interface cultures on Transwells; conditions: human, Papp (apparent permeability), mean ± standard deviation, apical to basal over 24 h, approx. 5 mg/mL apical
Escherichia coli = assay: microbe, parasite or virus in culture; assay type: cell-based; conditions: 24 h, read-out: MIC Ec
[4] = design: method as in PMID 29096171, PMID 7629560; conditions: delivered via injection; cited from earlier work
[5] = compound set 2, three donors (L8 excluded)

Row | SMILES | MIC Bp [1] | MIC [1] | MIC [2] | MIC Pa (Pseudomonas aeruginosa) | MIC (Pseudomonas aeruginosa) | Papp at 24 h [3, 5] | MIC Sa [2] | MIC (Escherichia coli) | Papp at 24 h ([3]; compound set 1, three donors) | penetration ratio (PELF-to-total plasma concentration) [4]
1 | CC(C)(O/N=C(/C(=O)N[C@@H]1C(=O)N2C(C(=O)[O-])=C(C[n+]3ccccc3)CS[C@H]12)c1csc(N)n1)C(=O)NCCNC(=O)c1ccc(B(O)O)cc1 [Compound 18] | < 60 µg/mL | 50 µg/mL (≈ 67.9 µM) | 25 µg/mL (≈ 33.9 µM) | < 60 µg/mL | 50 µg/mL (≈ 67.9 µM) | 2.21 ± 0.45 ×10⁻⁶ cm/s |  |  |  | 
2 | COCCOCCOCCOCCOCCNC(=O)C(C)(C)O/N=C(/C(=O)N[C@@H]1C(=O)N2C(C(=O)[O-])=C(C[n+]3ccccc3)CS[C@H]12)c1csc(N)n1 [Compound 8] | ≥ 100 µg/mL | > 200 µg/mL | 100 µg/mL (≈ 128 µM) | ≥ 100 µg/mL | > 200 µg/mL |  | ≥ 100 µg/mL | ≥ 100 µg/mL | 2.23 ± 0.22 ×10⁻⁶ cm/s | 
3 | CCCCNC(=O)C(C)(C)O/N=C(/C(=O)N[C@@H]1C(=O)N2C(C(=O)[O-])=C(C[n+]3ccccc3)CS[C@H]12)c1csc(N)n1 [Compound 1, n-butyl-ceftazidime] |  | 200 µg/mL (≈ 332 µM) | 6 µg/mL (≈ 9.97 µM) |  | 200 µg/mL (≈ 332 µM) |  |  | 100 µg/mL (≈ 166 µM) | 1.91 ± 0.45 ×10⁻⁶ cm/s | 
4 | CC(C)(O/N=C(/C(=O)N[C@@H]1C(=O)N2C(C(=O)[O-])=C(C[n+]3ccccc3)CS[C@H]12)c1csc(N)n1)C(=O)NCCCS(=O)(=O)c1ccccc1 [Compound 5] |  | 150 µg/mL (≈ 206 µM) | 13 µg/mL (≈ 17.9 µM) |  | 200 µg/mL (≈ 275 µM) | 2.71 ± 0.93 ×10⁻⁶ cm/s |  | < 15 µg/mL |  | 
5 | CC(C)(O/N=C(/C(=O)N[C@@H]1C(=O)N2C(C(=O)[O-])=C(C[n+]3ccccc3)CS[C@H]12)c1csc(N)n1)C(=O)NC1C(O)O[C@H](CO)[C@@H](O)[C@@H]1O (some centres unmarked) [Compound 10] | < 60 µg/mL | 38 µg/mL (≈ 53.7 µM) | 150 µg/mL (≈ 212 µM) | < 60 µg/mL | 50 µg/mL (≈ 70.6 µM) | 2.75 ± 0.68 ×10⁻⁶ cm/s |  | < 4 µg/mL |  | 
6 | CC(C)(O/N=C(/C(=O)N[C@@H]1C(=O)N2C(C(=O)[O-])=C(C[n+]3ccccc3)CS[C@H]12)c1csc(N)n1)C(=O)NCCc1ccccc1 [Compound 3] |  | 200 µg/mL (≈ 308 µM) | 3 µg/mL (≈ 4.62 µM) |  | 200 µg/mL (≈ 308 µM) | 4.65 ± 0.86 ×10⁻⁶ cm/s |  | 100 µg/mL (≈ 154 µM) |  | 
7 | COCCOCCOCCOCCOCCOCCOCCOCCNC(=O)C(C)(C)O/N=C(/C(=O)N[C@@H]1C(=O)N2C(C(=O)[O-])=C(C[n+]3ccccc3)CS[C@H]12)c1csc(N)n1 [Compound 9] | ≥ 100 µg/mL | > 200 µg/mL | 200 µg/mL (≈ 219 µM) | ≥ 100 µg/mL | > 200 µg/mL |  | ≥ 100 µg/mL | ≥ 100 µg/mL | 1.86 ± 0.39 ×10⁻⁶ cm/s | 
8 | CC(C)(O/N=C(/C(=O)N[C@@H]1C(=O)N2C(C(=O)[O-])=C(C[n+]3ccccc3)CS[C@H]12)c1csc(N)n1)C(=O)NCCc1cc(O)c(O)cc1Cl [Compound 4] | < 60 µg/mL | 1.6 µg/mL (≈ 2.23 µM) | 38 µg/mL (≈ 53.1 µM) | < 60 µg/mL | 19 µg/mL (≈ 26.5 µM) | 2.94 ± 0.63 ×10⁻⁶ cm/s |  | < 15 µg/mL |  | 
9 | CN1CCN(CCNC(=O)C(C)(C)O/N=C(/C(=O)N[C@@H]2C(=O)N3C(C(=O)[O-])=C(C[n+]4ccccc4)CS[C@H]23)c2csc(N)n2)CC1 [Compound 12] | ≥ 100 µg/mL | > 200 µg/mL | > 200 µg/mL | ≥ 100 µg/mL | > 200 µg/mL | 2.6 ± 0.94 ×10⁻⁶ cm/s | ≥ 100 µg/mL | ≥ 100 µg/mL |  | 
10 | CC(C)(O/N=C(/C(=O)N[C@@H]1C(=O)N2C(C(=O)[O-])=C(C[n+]3ccccc3)CS[C@H]12)c1csc(N)n1)C(=O)NCCOCCOCCOCCOCCOCCNc1ccnc(N)n1 [Compound 15, PEG5-pyrimidin-2-amine-ceftazidime] |  | 200 µg/mL (≈ 222 µM) | 50 µg/mL (≈ 55.4 µM) |  | > 200 µg/mL |  |  | 38 µg/mL (≈ 42.1 µM) | 1.75 ± 0.06 ×10⁻⁶ cm/s | 
11 | COCCOCCOCCNC(=O)C(C)(C)O/N=C(/C(=O)N[C@@H]1C(=O)N2C(C(=O)[O-])=C(C[n+]3ccccc3)CS[C@H]12)c1csc(N)n1 [Compound 7] |  | > 200 µg/mL | 50 µg/mL (≈ 72.3 µM) |  | > 200 µg/mL | 3.6 ± 1.1 ×10⁻⁶ cm/s |  | 100 µg/mL (≈ 145 µM) |  | 
12 | CC(C)(O/N=C(/C(=O)N[C@@H]1C(=O)N2C(C(=O)[O-])=C(C[n+]3ccccc3)CS[C@H]12)c1csc(N)n1)C(=O)NCCNc1ccnc(N)n1 [Compound 14] | ≥ 100 µg/mL | > 200 µg/mL | > 200 µg/mL | ≥ 100 µg/mL | 100 µg/mL (≈ 147 µM) | 2.03 ± 0.6 ×10⁻⁶ cm/s | ≥ 100 µg/mL | ≥ 100 µg/mL |  | 
13 | CC(C)(O/N=C(/C(=O)N[C@@H]1C(=O)N2C(C(=O)[O-])=C(C[n+]3ccccc3)CS[C@H]12)c1csc(N)n1)C(=O)NC(CCC(=O)O)C(=O)O (some centres unmarked) [Compound 13] |  | 200 µg/mL (≈ 296 µM) | 200 µg/mL (≈ 296 µM) |  | 200 µg/mL (≈ 296 µM) | 2.79 ± 0.91 ×10⁻⁶ cm/s |  | < 15 µg/mL |  | 
14 | CC(C)(O/N=C(/C(=O)N[C@@H]1C(=O)N2C(C(=O)[O-])=C(C[n+]3ccccc3)CS[C@H]12)c1csc(N)n1)C(=O)NCCCS(=O)(=O)c1ccc(B(O)O)cc1 [Compound 17] |  | 200 µg/mL (≈ 259 µM) | 13 µg/mL (≈ 16.8 µM) |  | 200 µg/mL (≈ 259 µM) | 3.33 ± 0.36 ×10⁻⁶ cm/s |  | 50 µg/mL (≈ 64.8 µM) |  | 
15 | CC(C)(O/N=C(/C(=O)N[C@@H]1C(=O)N2C(C(=O)[O-])=C(C[n+]3ccccc3)CS[C@H]12)c1csc(N)n1)C(=O)NCCCSc1ccc(B(O)O)cc1 [Compound 16, 4-propylthiophenyl boronic acid-ceftazidime] |  | 200 µg/mL (≈ 270 µM) | 3 µg/mL (≈ 4.06 µM) |  | > 200 µg/mL | 4.9 ± 1.4 ×10⁻⁶ cm/s |  | 50 µg/mL (≈ 67.6 µM) |  | 
16 | CCN(CC)CCNC(=O)C(C)(C)O/N=C(/C(=O)N[C@@H]1C(=O)N2C(C(=O)[O-])=C(C[n+]3ccccc3)CS[C@H]12)c1csc(N)n1 [Compound 11] |  | 75 µg/mL (≈ 116 µM) | 25 µg/mL (≈ 38.8 µM) |  | 150 µg/mL (≈ 233 µM) |  | < 40 µg/mL | 63 µg/mL (≈ 97.7 µM) | 3.58 ± 0.5 ×10⁻⁶ cm/s | 
17 | CC(C)(O/N=C(\C(=O)N[C@@H]1C(=O)N2C(C(=O)[O-])=C(C[n+]3ccccc3)CS[C@H]12)c1csc(N)n1)C(=O)O [Ceftazidime pentahydrate, ceftazidime pentahydrate, reference compound] |  | 3 µg/mL | 13 µg/mL |  | 6 µg/mL | 2.54 ×10⁻⁶ cm/s |  | 0.4 µg/mL | 3.36 ± 0.18 ×10⁻⁶ cm/s | 20–30%
18 | CC(C)(O/N=C(/C(=O)N[C@@H]1C(=O)N2C(C(=O)[O-])=C(C[n+]3ccccc3)CS[C@H]12)c1csc(N)n1)C(=O)NCCCCCCOCCCCc1ccccc1 [Compound 6] |  | > 200 µg/mL | 3 µg/mL (≈ 3.86 µM) |  | 200 µg/mL (≈ 257 µM) | 2.45 ± 0.21 ×10⁻⁶ cm/s |  | 100 µg/mL (≈ 129 µM) |  | 

From PMC11852049, “Impact of Hydrophobic, Hydrophilic, and Mucus-Binding Motifs on the Therapeutic Potential of Ceftazidime Analogs for Pulmonary Administration” (Antibiotics, 2025)
